# Measurements: ChEMBL document CHEMBL5620379, “Discovery, SAR and mechanistic studies of quinazolinone-based acetamide derivatives in experimental visceral leishmaniasis” (Eur J Med Chem, 2023)
# The source made the active and inactive calls. No cut-off for these calls is given here.
# Key:
# Leishmania donovani [1] = assay: Induction of cell cycle arrest in Leishmania donovani promastigotes assessed as accumulation of cells at G2/M phase at 25 uM measured after 8 hrs by PI staining based flow cytometry analysis (reference value: 35.7%); type: functional
# [2] = Toxicity in golden hamster infected with Leishmania donovani assessed as reduction in serum AST level at 40 mg/kg ,po and measured after 28 days post infection (reference value: 82.72 IU/L); type: organism-based, Mesocricetus auratus; conditions: in vivo, 672 h, time 28 day
# Splenocyte [3] = assay: Immunostimulatory activity in mouse splenocyte assessed as fold increase in IL-12 synthesis at 10 to 40 mg/kg measured after 1 week by RT-PCR analysis; type: functional; conditions: dose 10-40 mg/kg; time 1 weeks
# Leishmania donovani [4] = assay: Antileishmanial activity against Leishmania donovani amastigotes infected in J774 macrophage assessed as inhibition of parasite growth incubated for 48 hrs by luciferase assay; type: functional, organism-based; conditions: J774, 48 h
# Leishmania donovani [5] = assay: Induction of cell cycle arrest in Leishmania donovani promastigotes assessed as accumulation of cells at G2/M phase at 25 uM measured after 12 hrs by PI staining based flow cytometry analysis (reference value: 35.7%); type: functional
# Leishmania donovani [6] = assay: Induction of apoptosis in Leishmania donovani promastigotes assessed as late phase apoptosis at 25 uM measured after 48 hrs by DNA laddering assay; type: functional, organism-based
# [7] = Stability of the compound in stimulated intestinal fluid at 10 ug/ml at pH 6.8 measured after 120 min by HPLC analysis; type: ADME; conditions: simulated intestinal fluid, at 10 µg/mL, read-out: Stability
# Leishmania donovani [8] = assay: Antileishmanial activity against amastigote form of Leishmania donovani infected in BALB/c mouse assessed as inhibition of parasite growth in liver at 10 mg/kg, po measured after 1 week post treatment by geimsa staining based analysis relative to control; type: functional; set-up: scale not given: the % may be the effect or the level left; conditions: time 1 weeks
# Leishmania donovani [9] = assay: Antileishmanial activity against Leishmania donovani promastigotes assessed as decrease in intracellular proline level at 25 uM measured after 24 hrs (reference value: 6.27 mM); type: functional
# Leishmania donovani [10] = assay: Induction of autophagy in Leishmania donovani promastigotes assessed as fold induction of ATG8 gene at 25 uM measured after 24 hrs by RT-PCR analysis; type: functional
# Leishmania donovani [11] = assay: Antileishmanial activity against Leishmania donovani amastigotes infected in J774 macrophage assessed as inhibition of parasite growth at 25 uM incubated for 48 hrs by luciferase assay relative to control; type: functional; set-up: scale not given: the % may be the effect or the level left
# J774 [12] = assay: Cytotoxicity against mouse J774 macrophage incubated for 72 hrs by MTT assay; type: functional
# Leishmania donovani [13] = assay: Antileishmanial activity against amastigote form of Leishmania donovani infected in BALB/c mouse assessed as inhibition of parasite growth in spleen at 20 mg/kg, po measured after 1 week post treatment by geimsa staining based analysis relative to control; type: functional; set-up: scale not given: the % may be the effect or the level left; conditions: time 1 weeks
# Leishmania donovani [14] = assay: Induction of cell cycle arrest in Leishmania donovani promastigotes assessed as accumulation of cells at G1 phase at 25 uM measured after 4 hrs by PI staining based flow cytometry analysis (reference value: 35.7%); type: functional
# [15] = Toxicity in BALB/c mouse assessed as effect on skin texture at 10 to 40 mg/kg, po measured after 1 week; type: organism-based; conditions: in vivo, 168 h, dose 10-40 mg/kg, time 1 weeks
# [16] = Toxicity in golden hamster infected with Leishmania donovani assessed as reduction in serum ALT level at 40 mg/kg ,po and measured after 28 days post infection (reference value: 81.58 IU/L); type: organism-based, Mesocricetus auratus; conditions: in vivo, 672 h, time 28 day
# Leishmania donovani [17] = assay: Antileishmanial activity against Leishmania donovani infected in golden hamster assessed as inhibition of parasite growth in liver at 40 mg/kg, po administered for 7 days and measured after 28 days by giemsa staining based analysis relative to control; type: functional; set-up: scale not given: the % may be the effect or the level left; conditions: time 28 day
# Leishmania donovani [18] = assay: Antileishmanial activity against Leishmania donovani infected in golden hamster assessed as inhibition of parasite growth in spleen at 40 mg/kg, po administered for 7 days and measured after 28 days by giemsa staining based analysis relative to control; type: functional; set-up: scale not given: the % may be the effect or the level left; conditions: time 28 day
# Splenocyte [19] = assay: Immunostimulatory activity in mouse splenocyte assessed as decrease in IL-10 secretion at 10 to 40 mg/kg measured after 1 week by RT-PCR analysis relative to control; type: functional; set-up: scale not given: the % may be the effect or the level left; conditions: dose 10-40 mg/kg, time 1 weeks
# Leishmania donovani [20] = assay: Antileishmanial activity against amastigote form of Leishmania donovani infected in BALB/c mouse assessed as inhibition of parasite growth in spleen at 40 mg/kg, po measured after 1 week post treatment by geimsa staining based analysis relative to control; type: functional; set-up: scale not given: the % may be the effect or the level left; conditions: time 1 weeks
# [21] = Renal toxicity in golden hamster assessed as effect on urea level at 40 mg/kg, po measured after 28 days post infection; type: organism-based, Mesocricetus auratus; conditions: in vivo, 672 h, time 28 day
# J774 [22] = assay: Immunostimulatory activity in mouse J774 macrophage infected with Leishmania donovani promastigotes assessed as fold increase in iNOS mRNA expression at 25 uM measured after 48 hrs in presence of nitric oxide by spectrophotometer analysis; type: functional
# J774 [23] = assay: Immunostimulatory activity in mouse J774 macrophage infected with Leishmania donovani assessed as decrease in IL-10 level at 25 uM measured after 24 hrs by RT-PCR analysis relative to control; type: functional; set-up: scale not given: the % may be the effect or the level left
# [24] = Stability of the compound in stimulated gastric fluid at 10 ug/ml at pH 1.2 measured upto 120 min by HPLC analysis; type: ADME; conditions: simulated gastric fluid, at 10 µg/mL, read-out: Stability
# Leishmania donovani [25] = assay: Antileishmanial activity against Leishmania donovani infected in golden hamster assessed as inhibition of parasite growth in liver at 80 mg/kg, po administered for 7 days and measured after 28 days by giemsa staining based analysis relative to control; type: functional; set-up: scale not given: the % may be the effect or the level left; conditions: time 28 day
# J774 [26] = assay: Cytotoxicity against mouse J774 cells at 50 uM incubated for 72 hrs by MTT assay relative to control; type: toxicity, cell-based; conditions: j774, 72 h
# Leishmania donovani [27] = assay: Induction of autophagy in Leishmania donovani promastigotes assessed as fold induction of ATG5 gene at 25 uM measured after 24 hrs by RT-PCR analysis; type: functional
# Leishmania donovani [28] = assay: Induction of cell cycle arrest in Leishmania donovani promastigotes assessed as accumulation of cells at S phase at 25 uM measured after 4 hrs by PI staining based flow cytometry analysis (reference value: 28.6%); type: functional
# [29] = Selectivity index, ratio of CC50 for mouse J774 macrophage to IC50 for Leishmania donovani amastigotes infected in J774 macrophage; type: toxicity; conditions: J774 macrophages, read-out: Ratio CC50/IC50
# J774 [30] = assay: Downregulation of CREB enrichment in mouse J774 macrophage infected with Leishmania donovani at 25 uM measured after 4 hrs by ChIP assay; type: functional, cell-based
# Leishmania donovani [31] = assay: Induction of apoptosis in Leishmania donovani promastigotes assessed as appearance of intense swelling in mitochondria at 25 uM by transmission electron microscopy analysis; type: functional, organism-based
# Leishmania donovani [32] = assay: Antileishmanial activity against Leishmania donovani promastigotes measured after 48 hrs by MTT assay; type: functional, organism-based
# Leishmania donovani [33] = assay: Induction of cell cycle arrest in Leishmania donovani promastigotes assessed as accumulation of cells at S phase at 25 uM measured after 12 hrs by PI staining based flow cytometry analysis (reference value: 28.6%); type: functional
# J774 [34] = assay: Downregulation of GSK-3beta phosphorylation in mouse J774 macrophage infected with Leishmania donovani at 25 uM measured after 8 to 12 hrs by immunoblot analysis; type: functional, cell-based; conditions: time 8-12 hrs
# Leishmania donovani [35] = assay: Induction of apoptosis in Leishmania donovani promastigotes assessed as appearance of disorganised mitochondrial cristae at 25 uM by transmission electron microscopy analysis; type: functional, organism-based
compound,measurement,setting,value
Cn1c(-c2ccc(OCC(=O)Nc3ccccn3)cc2)nc2ccccc2c1=O,Activity,Leishmania donovani [1],23.8%
same,Activity,[2],123.38 IU/L
same,fold change (FC),Splenocyte [3],4.96
same,IC50,Leishmania donovani [4],3.55 µM
same,Activity,Leishmania donovani [5],18.7%
same,Activity,Leishmania donovani [6],Active
same,"remaining at 2 h, 10 ug/ml",[7],97.5%
same,Activity,Leishmania donovani [8],>50%
same,Activity,Leishmania donovani [9],2.96 mM
same,fold change (FC),Leishmania donovani [10],8.92
same,Activity,Leishmania donovani [11],82.68%
same,CC50,J774 [12],65 µM
same,Activity,Leishmania donovani [13],>50%
same,Activity,Leishmania donovani [14],43.8%
same,Activity,[15],Non-Toxic
same,Activity,[16],101.88 IU/L
same,Activity,Leishmania donovani [17],66.7%
same,Activity,Leishmania donovani [18],68.4%
same,Activity,Splenocyte [19],47.69%
same,Activity,Leishmania donovani [20],86.3%
same,Activity,[21],Non-Toxic
same,fold change (FC),J774 [22],4.87
same,Activity,J774 [23],72.23%
same,"remaining at 2 h, 10 ug/ml",[24],94.5%
same,Activity,Leishmania donovani [25],86.5%
same,Activity,J774 [26],52.15%
same,fold change (FC),Leishmania donovani [27],2.84
same,Activity,Leishmania donovani [28],25.6%
same,selectivity ratio,[29],18.3
same,Activity,J774 [30],Active
same,Activity,Leishmania donovani [31],Active
same,IC50,Leishmania donovani [32],3.39 µM
same,Activity,Leishmania donovani [33],15.5%
same,Activity,J774 [34],Active
same,Activity,Leishmania donovani [35],Active
